# Peptide text beside a SMILES is read from it. * marks the point of attachment. Cbz = O=C(OCc1ccccc1)*
# Legend:
# HIV-1 protease = HIV-1 protease (Human immunodeficiency virus type 1 group M subtype B, UniProt P04585); experiment: In vitro Gag processing of recombinant Pr55 by recombinant HIV-1 protease, Western blot; format: biochemical; conditions: for inhibition of protease activity: 10-fold higher concentration than in the cell culture, 30 min reaction, FIG. 3 reactions 4-9; for inhibitory action on Gag processing by HIV-1 protease: inhibitor concentration of up to 100 microM, enzyme-to-substrate ratio 1:25
# Description: Therefore, a possible influence of proteasome inhibitors on the enzymic activity of the HIV-1 protease is investigated within the framework of the invention by studying the in vitro processing of Gag polyprotein (for this, see exemplary embodiment 4). For this purpose, according to the invention, recombinant Pr55 is expressed in insect cells and purified from released virus-like particles. Enzymatically active HIV-1 protease is expressed in E. coli and chromatographically purified. The specific activity of the protease is determined by means of titration of the active sites. Pr55 and protease are set to an enzyme-to-substrate ratio of 1:25 and incubated for a defined time under conditions under which only approx. 50% of the substrate Pr55 is proteolytically processed. These reaction conditions allow sensitive detection of small effects on the enzymic activity of the protease.
# Recombinant HIV-1 Gag polyprotein Pr55 was prepared in insect cells and recombinant HIV-1 protease was prepared in E. coli. The experimental details of expression, purification and determination of the enzymic activity as well as carrying out the in vitro cleavage reactions and Western blots are illustrated in more detail in Example 6f. The enzyme-to-substrate ratios (protease-Pr55 ratio) were chosen in such a way that substrate conversion was relatively slow. After 30 min of reaction, approx. 50% of Pr55 had been cleaved. Under these conditions it is possible to determine even weakly inhibitory effects on the enzymic activity of the protease.
# Myristylated Pr55 of HIV-1 was produced from virus-like particles which were released from insect cells infected with recombinant baculovirus Gag12myr. The virus-like particles were purified by centrifugation through a 20% sucrose layer. Recombinant HIV-1 protease expressed in E. coli was purified by means of gel filtration chromatography on Superose 12. The enzyme concentration was determined by means of active-site titration. For cleavage reactions, usually 1 μM Pr55 was incubated with 40 nM (nanomol) PR in reaction buffer (50 mM MES pH 6.5, 300 mM NaCl, 2 mM DTT, 1 mM EDTA, 0.1% Triton-X 100) at 37° C. for 30 min. In order to ensure maximum saturation of PR with inhibitors, PR was preincubated with the particular inhibitor for 5 min, prior to the start of the cleavage reactions. The cleavage reactions were stopped by adding SDS sample buffer and boiling the sample for 10 min. The cleavage products were fractionated in 10% SDS-PAGE and then detected by means of Western blot. For this purpose, anti-CA-specific antibodies were used which were detected by means of anti-rabbit IgG-peroxidase conjugate and chemiluminescence reaction.
# Recombinant Pr55 was isolated from virus-like particles which had been produced by insect cells infected with recombinant bacculovirus. Recombinant HIV-1 protease was expressed in E. coli, purified, and the specific activity was determined by active-site titration. The quantities of Pr55 and protease were mixed with an enzyme-to-substrate ratio of 1:25 and incubated at 37° C. for 30 min. The reaction was stopped by adding SDS sample buffer. The cleavage reactions were then studied by Western blot analysis with CA-specific antiserum. Pr55, CA and intermediate processing product MA-Ca were made visible, after antibody binding, by means of a chemiluminescence reaction. […]
# mouse thymus cell lines = conditions: cited from earlier work
# DHBV = experiment: Primary and secondary DHBV infection in primary duck hepatocytes, core immunofluorescence; format: cell-based, duck hepatitis B virus
# 20S proteasome = 20S proteasome (Homo sapiens, UniProt P28074); conditions: in vitro; cited from earlier work
# HIV-1NL4-3 [1] = experiment: HIV-1 replication in A3.01 cell culture, RT activity in supernatant; format: cell-based; conditions: for productive infection in the culture (RT accumulation): 5 microM, approx. 2 weeks
# HIV-1NL4-3 [2] = format: cell-based
# HIV-1NL4-3 [3] = experiment: Infectivity of released virions, end point titration (TCID50) on C8166 cells; format: cell-based; conditions: for Infectivity Titer/ng p24^CA / Virus titer/ml TCID50 / Infectivity % of “no zLLL”: 40 μM zLLL; for Infectivity % of “no zLLL”: control = 100; for reduction of infectious virions in the cell culture medium: 40 microM zLLL
# Protocol: Cultures of human CD4^+ T cells, A3.01 were infected with HIV-1NL4-3 and cultured in RPMI for approx. 7 days. Approx. 80% of the cell culture medium was replaced every other day. The amount of released virus particles was determined by testing samples of the cell culture supernatants for activity of virus-associated RT. Furthermore, the spread of the infection was monitored by indirect immunofluorescence with anti-CA antibodies. The time of maximum spread of the infection in the culture was determined on the basis of RT accumulation and of syncytia formation. At the time of maximum virus production (approx. 7 days after infection), fresh noninfected A3.01 cells were mixed with the infected culture in a 1:1 ratio and incubated for another 24 h. This makes it possible to quasi-synchronize the infection and to maximize the number of infected cells with maximum HIV expression at a given time. The cells were divided into parallel cultures, washed with PBS and treated with 40 microM zLLL in medium for 4.5 hours. Washing of the cells and culturing in fresh medium was necessary in order to monitor the newly produced viruses during the harvest period of 4.5 hours (+zLLL “0 hr”). It was assumed that there is a certain lag phase of approx. 1 hour, corresponding to HIV-1 assembly, between the start of the treatment with proteasome inhibitors and the release of defective virions. In order to monitor the virus production of cells with inactivated proteasomes at the start of the harvest period, parallel cultures were pretreated with 40 microm zLLL prior to the washing step for one (+zLLL “−1 hr”) or 6 hours (+zLLL “−6 hr”). A parallel culture was incubated without inhibitor (no zLLL). The virus-containing cell culture supernatants were collected, filtered, and the amount of Gag proteins was quantified by means of a standardized capture ELISA using anti-CA antibodies with different epitopes. […] The infectivity of the culture supernatants was determined by means of end point titration (detailed in example 6d) and is indicated as TCID50 in Table 1. The specific infectivity was determined by dividing TCID50 by the total amount of Gag and is listed in Table 1 as percentage infectivity of the control culture (no zLLL=100%). Both the release of Gag proteins and the infectivity of the released virions are shown to be inhibited after zLLL treatment. This effect increases with time, and infectious virions in the cell culture medium are reduced by 84% after 4.5 hours and by 98% after another 6 hours of pretreatment (Table 1).
# CD4^+ T cells (A3.01) were infected with HIV-1NL4-3, at the time of maximum virus production (approx. 7 days post infection), parallel cultures were treated either without or with 40 μM zLLL for 1 (+zLLL “−1 hr”) or 6 hours (+zLLL “−6 hr”). This was followed by washing the cells and another 4.5 hours of incubating with or without 40 μM zLLL. In a parallel culture, cells were treated with 40 μM zLLL immediately after washing (+zLLL “0 hr”). The virus-containing supernatants were collected, and the amount of CA antigen was quantified by means of ELISA. The specific infectivity was determined as the infectious virus titer per nanog of CA and depicted relative to the untreated control culture (100%).
# Acute HIV-1NL4-3-infected A3.01 cells were treated with 40 microM zLLL for various times, as indicated in exemplary embodiment 1. Cell-free cell culture supernatant was harvested and filtered (pore size=0.45 microm). The relative quantity of released virions was quantified by means of a p24^CA-antigen capture ELISA. For the purpose of virus titration, in each case 8 parallel cultures of C8166 cells were infected with the particular viral preparations, in a serial 10-fold dilution. The infectivity titer was determined as 50% cell culture infectious dose (TCID50), namely by determining syncytia formation for each culture and dilution step on day 10 post infection. […]
# HIV-1NL4-3 [4] = experiment: Virus release from HIV-1-infected A3.01 T cells, p24 CA capture ELISA; format: cell-based
# Protocol: Cultures of human CD4^+ T cells, A3.01 were infected with HIV-1NL4-3 and cultured in RPMI for approx. 7 days. Approx. 80% of the cell culture medium was replaced every other day. The amount of released virus particles was determined by testing samples of the cell culture supernatants for activity of virus-associated RT. Furthermore, the spread of the infection was monitored by indirect immunofluorescence with anti-CA antibodies. The time of maximum spread of the infection in the culture was determined on the basis of RT accumulation and of syncytia formation. At the time of maximum virus production (approx. 7 days after infection), fresh noninfected A3.01 cells were mixed with the infected culture in a 1:1 ratio and incubated for another 24 h. This makes it possible to quasi-synchronize the infection and to maximize the number of infected cells with maximum HIV expression at a given time. The cells were divided into parallel cultures, washed with PBS and treated with 40 microM zLLL in medium for 4.5 hours. […] The virus-containing cell culture supernatants were collected, filtered, and the amount of Gag proteins was quantified by means of a standardized capture ELISA using anti-CA antibodies with different epitopes. […] The infectivity of the culture supernatants was determined by means of end point titration (detailed in example 6d) and is indicated as TCID50 in Table 1. The specific infectivity was determined by dividing TCID50 by the total amount of Gag and is listed in Table 1 as percentage infectivity of the control culture (no zLLL=100%). […]
# CD4^+ T cells (A3.01) were infected with HIV-1NL4-3, at the time of maximum virus production (approx. 7 days post infection), parallel cultures were treated either without or with 40 μM zLLL for 1 (+zLLL “−1 hr”) or 6 hours (+zLLL “−6 hr”). […] The virus-containing supernatants were collected, and the amount of CA antigen was quantified by means of ELISA. The specific infectivity was determined as the infectious virus titer per nanog of CA and depicted relative to the untreated control culture (100%). […]
structure (smiles),measurement,setting,value
"CC(=O)N[C@@H](CSC(=O)[C@]1([C@@H](O)C(C)C)NC(=O)[C@H](C)[C@@H]1O)C(=O)O [LC, lactacystin]",inhibition of protease activity,HIV-1 protease,not possible to detect any inhibition
same,inhibitory action on Gag processing by HIV-1 protease,HIV-1 protease,no inhibitory action whatsoever
same,concentration tolerated in cell culture,mouse thymus cell lines,up to 6 μM
C=C(C)C[C@H](NC(=O)[C@H](CO)NC(=O)CCCCC(C)C)C(=O)[C@@]1(CO)CO1 [eponemycin],number of core-positive cells compared to untreated cultures,"DHBV; 1 μM, day 3 to day 6 after infection",much lower number of core-positive cells
same,tolerability in HepG2,HepG2,still tolerated well
CC[C@H](C)[C@H](NC(=O)[C@H]([C@@H](C)CC)N(C)C(C)=O)C(=O)N[C@H](C(=O)N[C@@H](CC(C)C)C(=O)[C@@]1(C)CO1)[C@@H](C)O [epoxomicin],concentration from which toxic symptoms appeared,"HepG2; human, 48 h",≥ 0.1 µM
CC(C)c1nc(CN(C)C(=O)N[C@H](C(=O)N[C@@H](Cc2ccccc2)C[C@H](O)[C@H](Cc2ccccc2)NC(=O)OCc2cncs2)C(C)C)cs1 [ritonavir],inhibition of chymotrypsin activity of the 20S proteasome,20S proteasome,can inhibit
CC(C)(C)NC(=O)[C@@H]1C[C@@H]2CCCC[C@@H]2CN1C[C@@H](O)[C@H](Cc1ccccc1)NC(=O)[C@H](CC(N)=O)NC(=O)c1ccc2ccccc2n1 [saquinavir],in vitro processing of Pr55,"HIV-1 protease; control, FIG. 3 reaction 10",complete blockage
Cc1ccc(C(=O)Nc2ccc(S(=O)(=O)O)c3cc(S(=O)(=O)O)cc(S(=O)(=O)O)c23)cc1NC(=O)c1cccc(NC(=O)Nc2cccc(C(=O)Nc3cc(C(=O)Nc4ccc(S(=O)(=O)O)c5cc(S(=O)(=O)O)cc(S(=O)(=O)O)c45)ccc3C)c2)c1 [suramin],number of the core-expressing cells,"DHBV; 100 microg/ml, from three days after infection for three days",very greatly reduced
same,establishment of the primary infection,"DHBV; pretreatment 100 microg/ml, 2 h pre-infection",completely blocks
"CC(C)C[C@@H](C=O)NC(=O)[C@H](CC(C)C)NC(=O)[C@H](CC(C)C)NC(=O)OCc1ccccc1 [zLLL, N-carbobenzoxyl-L-leucinyl-L-leucinyl-L-leucinal] (Cbz-Leu-Leu-Leu-aldehyde)",effect on HIV-1 replication,HIV-1NL4-3 [1]; 1 microM,completely inhibits replication
same,productive infection in the culture (RT accumulation),HIV-1NL4-3 [1]; FIG. 4 panel 1,no productive infection at all
same,productive infection in the culture (RT accumulation),HIV-1NL4-3 [1]; FIG. 4 panel 2,only a very reduced productive infection
same,effect on HIV-1 replication,HIV-1NL4-3 [1]; 100 nanoM,relatively weak inhibitory effect
same,inhibition of protease activity,HIV-1 protease,not possible to detect any inhibition
same,inhibitory action on Gag processing by HIV-1 protease,HIV-1 protease,no inhibitory action whatsoever
same,kinetics of intracellular Gag processing and of the release of virus-associated and free Gag,HIV-1NL4-3 [2],distinct delay
same,Infectivity Titer/ng p24^CA,"HIV-1NL4-3 [3]; “0 hr”, 4.5 hours harvest",1.0 × 10^4 Titer/ng p24^CA
same,Virus titer/ml TCID50,"HIV-1NL4-3 [3]; “0 hr”, 4.5 hours harvest",1.2 × 10^6 TCID50/ml
same,Infectivity % of “no zLLL”,"HIV-1NL4-3 [3]; “0 hr”, 4.5 hours harvest",14%
same,Infectivity Titer/ng p24^CA,HIV-1NL4-3 [3]; “−1 hr” plus 4.5 hours harvest,5.0 × 10^3 Titer/ng p24^CA
same,Virus titer/ml TCID50,HIV-1NL4-3 [3]; “−1 hr” plus 4.5 hours harvest,4.4 × 10^5 TCID50/ml
same,Infectivity % of “no zLLL”,HIV-1NL4-3 [3]; “−1 hr” plus 4.5 hours harvest,7%
same,Infectivity Titer/ng p24^CA,HIV-1NL4-3 [3]; “−6 hr” plus 4.5 hours harvest,1.5 × 10^3 Titer/ng p24^CA
same,Virus titer/ml TCID50,HIV-1NL4-3 [3]; “−6 hr” plus 4.5 hours harvest,3.8 × 10^4 TCID50/ml
same,Infectivity % of “no zLLL”,HIV-1NL4-3 [3]; “−6 hr” plus 4.5 hours harvest,2%
same,reduction of infectious virions in the cell culture medium,HIV-1NL4-3 [3]; after 4.5 hours,84%
same,reduction of infectious virions in the cell culture medium,HIV-1NL4-3 [3]; after another 6 hours of pretreatment,98%
same,Virus release ng p24^CA/ml,"HIV-1NL4-3 [4]; 40 μM zLLL added immediately after washing (“0 hr”), 4.5 hours harvest, A3.01",122 ng p24^CA/ml
same,Virus release ng p24^CA/ml,"HIV-1NL4-3 [4]; 40 μM zLLL, 1 hour pretreatment (“−1 hr”) plus 4.5 hours harvest",88 ng p24^CA/ml
same,Virus release ng p24^CA/ml,"HIV-1NL4-3 [4]; 40 μM zLLL, 6 hours pretreatment (“−6 hr”) plus 4.5 hours harvest",26 ng p24^CA/ml
